Data on 14 compounds can be found in patent US5905089A, “Use of sesquiterpene lactones for treatment of severe inflammatory disorders” (Board of Supervisors of Louisiana State University and …, priority 1998, dated 1999).

One experiment deals with MAPKs. Description: Tyrosine phosphorylation / activation of MAPKs in RAW 264.7 cells. It is filed as cell-based, murine. To be noted: for effect on parthenolide inhibition of LPS-induced activation of MAPKs: parthenolide 1 μg/ml with DTT 100 μM, 2-ME 50 μM or Cys 150 μM, LPS 1 μg/ml, 30 min, FIG. 6A. As for the experimental part: (§1) Rat (Sprague-Dawley) alveolar macrophages were collected by broncho-alveolar lavage as described by Lee et al., J. Biol. Chem., vol. 267, pp. 25934-25938 (1992). The murine macrophage cell line RAW 264.7 (ATCC no. TIB-71) was cultured in Dubecco's modified Eagle's medium (DMEM) containing 10% heat-inactivated fetal bovine serum (FBS, Intergen). For the cyclooxygenase activity assay, cells were seeded in 24 well plates, and after near-confluency, cells were treated with aspirin (250 μM) for 2.5h to inactivate endogenous cyclooxygenase. […] COX activity was determined by measuring prostaglandin E2 concentrations in cells incubated with arachidonic acid (30 μM) for 10 minutes as described in Lee et al. (1992).
(§2) This detection technique was carried out essentially as described in Chanmugan et al. (1995) using 4G10 monoclonal antiphosphotyrosine antibody (UBI) and the ECL detection system (Amersham).
(§3) Parthenolide suppressed LPS-stimulated tyrosine phosphorylation of various proteins in RAW 264.7 cells as assessed by antiphosphotyrosine immunoblot, depicted in FIG. 5A. This inhibition was correlated with the suppressed expression of COX-2 and IL-1α. RAW 264.7 cells were pretreated with parthenolide in various concentrations or with herbimycin A (0.5 μg/ml) for 3h, and then stimulated with LPS (1 μg/ml) in the presence of the inhibitors for 30 min. […] Therefore, the extent of tyrosine phosphorylation of JNK-1 was assessed by the electrophoretic mobility shift of phosphorylated JNK-1 as shown in FIG. 5B. Parthenolide inhibited tyrosine phosphorylation of JNK-1. Another protein tyrosine kinase inhibitor, herbimycin A ([…]), inhibited tyrosine phosphorylation of the MAPK subfamily.
The mechanism by which parthenolide inhibits protein tyrosine phosphorylation is not currently known. It has been speculated that the tyrosine kinase inhibitor herbimycin A inactivates p60^v-src kinase by irreversibly binding to the sulphydryl (SH) groups of p60^v-src kinase. Y. Uehara et al., Biochem. Biophys. Res. Commun., vol. 163, pp. 803-809 (1989). The inactivation by herbimycin may occur through conjugation between highly polarized double bonds in the benzoquinone moiety of herbimycin A and the SH group of sulphydryl compounds. Without wishing to be bound by this theory, the α-methylenebutyrolactone in parthenolide may interact with biological nucleophiles such as sulphydryl groups. Indeed, pretreating cells with sulphydryl compounds abrogated the inhibitory effect of parthenolide on LPS-induced activation of MAPKs as shown in FIG. 6A. In FIG. 6, RAW 264.7 cells were pretreated with parthenolide (1 μg/ml) in the presence of DTT (dithiothreitol, 100 μM), 2-ME (2-mercaptoethanol, 50 μM), or Cys (L-cysteine, 150 μM), and were then stimulated with LPS (1 μg/ml). Cells were incubated for 30 min for antiphosphotyrosine immunoblot analysis (FIG. 6A) and 8h for COX-2 and IL-1α Western blot analyses (FIG. 6B). […] Whether parthenolide inhibits protein tyrosine phosphorylation by directly inhibiting PTKs or by inhibiting other target protein(s) that affect the activity of PTKs is not currently known.

The test system of experiment [1] is ERK-1. Briefly: Tyrosine phosphorylation of ERK-1 in RAW 264.7 cells (antiphosphotyrosine immunoblot). It is filed as cell-based, murine. To be noted: 3h pretreatment, LPS 1 μg/ml 30 min; FIG. 5A. Here is the method:
as §1, §2
(§4) Parthenolide suppressed LPS-stimulated tyrosine phosphorylation of various proteins in RAW 264.7 cells as assessed by antiphosphotyrosine immunoblot, depicted in FIG. 5A. This inhibition was correlated with the suppressed expression of COX-2 and IL-1α. […] Therefore, the extent of tyrosine phosphorylation of JNK-1 was assessed by the electrophoretic mobility shift of phosphorylated JNK-1 as shown in FIG. 5B. […]
On the technique in general: In western blotting, separated proteins are transferred to a membrane and probed.

Experiment [2] has as its system ERK-1. Description: Kinase activity of ERK-1 in RAW 264.7 cells (in-gel kinase assay, MBP substrate). It is filed as cell-based, murine. To be noted: 3h pretreatment, LPS 1 μg/ml 30 min; FIG. 5. As for the experimental part:
as §1
(§5) This assay was performed according to the method described by Kameshita et al., Anal. Biochem., vol. 183, pp. 139-143 (1989) using myelin basic protein (MBP) as a substrate.
as §4

The test system of experiment [3] is ERK-2. Briefly: Tyrosine phosphorylation of ERK-2 in RAW 264.7 cells (antiphosphotyrosine immunoblot). In kind it is cell-based, murine. To be noted: 3h pretreatment, LPS 1 μg/ml 30 min; FIG. 5A. Here is the method: as §1, §2, §4
The subject of experiment [4] is ERK-2. Description: Kinase activity of ERK-2 in RAW 264.7 cells (in-gel kinase assay, MBP substrate). In kind it is cell-based, murine. To be noted: 3h pretreatment, LPS 1 μg/ml 30 min; FIG. 5. As for the experimental part:
as §1, §5, §4

Experiment [5] relates to COX-2. Description: Inhibition of the expression of COX-2 in LPS-stimulated macrophages (Table 1). It is filed as cell-based. To be noted: for IC50, inhibiting the expression of COX-2: IC50 determined at multiple dose levels; for inhibitory activity (COX-2 expression), in words: comparison among tested compounds. Here is the method: Rat (Sprague-Dawley) alveolar macrophages were collected by broncho-alveolar lavage as described by Lee et al., J. Biol. Chem., vol.
Alveolar macrophages pretreated with aspirin were incubated with LPS (10 μg/ml) and various concentrations of parthenolide for 16h. The activity of de novo synthesized COX-2 was determined by measuring the levels of PGE2 produced from exogenous arachidonic acid. Activity of TNFα was determined by bioassay using L929 cells as described by Aggarwal et al., J. Biol. Chem., vol. […] Values in FIG. 2 are the means of triplicate samples for TNFα and duplicate samples for PGE2.

A further experiment has as its system IL-1α. Briefly: IL-1α expression in LPS-stimulated RAW 264.7 cells (Western blot). In kind it is cell-based, murine. To be noted: parthenolide 1 μg/ml with DTT 100 μM, 2-ME 50 μM or Cys 150 μM; LPS 1 μg/ml, 8h; FIG. 6B. Here is the method:
as §1
(§6) The protein levels of COX-2 and GAPDH were assessed by Western blot analysis using polyclonal antibodies as described in Lee et al. (1992). Polyclonal antibodies for IL-1α and JNK-1 were purchased from Genzyme and Santa Cruz Biotech, respectively.
as §3
(§7) The mechanism by which parthenolide inhibits protein tyrosine phosphorylation is not currently known. It has been speculated that the tyrosine kinase inhibitor herbimycin A inactivates p60^v-src kinase by irreversibly binding to the sulphydryl (SH) groups of p60^v-src kinase. Y. Uehara et al., Biochem. Biophys. Res. Commun., vol. 163, pp. 803-809 (1989). The inactivation by herbimycin may occur through conjugation between highly polarized double bonds in the benzoquinone moiety of herbimycin A and the SH group of sulphydryl compounds. Without wishing to be bound by this theory, the α-methylenebutyrolactone in parthenolide may interact with biological nucleophiles such as sulphydryl groups. Indeed, pretreating cells with sulphydryl compounds abrogated the inhibitory effect of parthenolide on LPS-induced activation of MAPKs as shown in FIG. 6A. […]

For experiment [6], the system named is COX-2. Description: COX-2 expression in LPS-stimulated RAW 264.7 cells (Western blot). It is filed as cell-based, murine. To be noted: parthenolide 1 μg/ml with DTT 100 μM, 2-ME 50 μM or Cys 150 μM; LPS 1 μg/ml, 8h; FIG. 6B. Here is the method: as §1, §6, §3, §7
In experiment [7] the test system is epidermal growth factor receptor. To be noted: in vitro; cited from earlier work.
In the next experiment the test system is tumor. To be noted: cited from earlier work.

As to `COC1C=CC=C(C)C(=O)NC2=CC(=O)C=C(C2=O)C(OC)C(C)CC(OC)C(OC)C(C)C=C(C)C1OC(N)=O` (stereo not shown) [herbimycin A, reference compound], in the experiment with MAPKs (3h pretreatment (herbimycin A 0.5 μg/ml), LPS 1 μg/ml 30 min), the “tyrosine phosphorylation of the MAPK subfamily” value was “inhibited”. In addition, in the experiment on ERK-1 [1], the “tyrosine phosphorylation of ERK-1” value is “dose-dependent inhibition”. Moreover, the “kinase activity of ERK-1” value in the experiment on ERK-1 [2] is “dose-dependent inhibition”. Besides, the “tyrosine phosphorylation of ERK-2” value in the experiment with ERK-2 [3] was “dose-dependent inhibition”. In the experiment with ERK-2 [4], the “kinase activity of ERK-2” value is reported as “dose-dependent inhibition”.

For `CC1C(=O)OC2C1CCC1(C)OC1CCC1(C)OC21` (stereo not shown) [Compound 12, 1(10)epoxy-11,13-dihydroparthenolide], in the experiment on COX-2 [5], the IC50, inhibiting the expression of COX-2 was more than 100 µg/mL and the “inhibitory activity (COX-2 expression), in words” value (“inhibitory activity” below) was “loss of inhibitory activity”.

Turning to `C=C1C(=O)O[C@@H]2/C=C(\C)CC/C=C(\C)CC[C@@H]12` [Compound 9, Costunolide], in the experiment on COX-2 [5], the IC50, inhibiting the expression of COX-2 came out at 1.6 µg/mL.

Take `N[C@@H](CS)C(=O)O` [Cys, L-cysteine]: in the experiment on MAPKs, the “effect on parthenolide inhibition of LPS-induced activation of MAPKs” value (“effect on parthenolide inhibition” for short) was “abrogated”. The “effect on parthenolide-inhibited expression of IL-1α” value in the experiment with IL-1α is recorded as “recovered expression”. The “effect on parthenolide-inhibited expression of COX-2” value with COX-2 [6] was “recovered expression”.

For `CC1=CCCC2(C)OC2C2OC(=O)C(C)C2CC1` (stereo not shown) [Compound 11, 11,13-dihydroparthenolide], in the experiment on COX-2 [5], the IC50, inhibiting the expression of COX-2 was more than 100 µg/mL and the “inhibitory activity” value is “loss of inhibitory activity”.

Take `OCCS` [Compound 2-ME, 2-mercaptoethanol]: in the experiment on MAPKs, the “effect on parthenolide inhibition” value is “abrogated”. Moreover, in the experiment on IL-1α, the “effect on parthenolide-inhibited expression of IL-1α” value is recorded as “recovered expression”. Moreover, in the experiment on COX-2 [6], the “effect on parthenolide-inhibited expression of COX-2” value is “recovered expression”.

As for `O[C@H](CS)[C@H](O)CS` (racemic) [DTT, dithiothreitol], the “effect on parthenolide inhibition” value in the experiment on MAPKs is reported as “abrogated”. For the same compound, the “effect on parthenolide-inhibited expression of IL-1α” value in the experiment on IL-1α is recorded as “recovered expression”. In addition, in the experiment on COX-2 [6], the “effect on parthenolide-inhibited expression of COX-2” value is “recovered expression”.

As to `CC1=C2[C@H]3OC(=O)[C@@H](C)[C@@H]3CC[C@@]2(C)C=CC1=O` [Compound 13, Santonin, reference compound], the IC50, inhibiting the expression of COX-2 in the experiment with COX-2 [5] is more than 100 µg/mL.

In the case of `O=c1c(-c2ccc(O)cc2)coc2cc(O)cc(O)c12` [genistein], in experiment [7], the “tyrosine-specific protein kinase activity of the EGF receptor” value is “inhibited”.

As for Encelin [Compound 2], the IC50, inhibiting the expression of COX-2 with COX-2 [5] is 0.1 µg/mL. Further, the “inhibitory activity” value in the experiment on COX-2 [5] (listed as Encelin) is given as “most active compound tested”; in the experiment on COX-2 [5] (listed as encelin), “highest inhibitory activity”.

In the experiment on COX-2 [5], `C=C1C(=O)O[C@@H]2[C@H]1CC[C@H](C)[C@]1(CCC(=O)O1)[C@@]2(C)O` [Compound 8, Psilostachyin A] displayed an IC50, inhibiting the expression of COX-2 of 1.3 µg/mL.

Take `C=C1C(=O)O[C@@H]2C[C@@H](C)[C@@H]3C=CC(=O)[C@@]3(C)[C@@H](O)[C@H]12` [helenalin, reference compound]: in the experiment with tumor, the antitumor activity entry is “some antitumor activity”.

In the case of `C=C1C(=O)O[C@@H]2/C=C(\C)[C@@H]3O[C@@H]3/C=C(/C(=O)OC)[C@H](O)[C@@H](OC(=O)[C@]3(C)O[C@@H]3C)[C@@H]12` [Compound 5, Melampodin A], in the experiment on COX-2 [5], the IC50, inhibiting the expression of COX-2 was 0.5 µg/mL and the “inhibitory activity” value is recorded as “activities similar to that of parthenolide”.

Turning to `C[C@@H]1C[C@@H]2OC(=O)[C@]3(C)[C@H]2[C@@H](OC3(C)O)[C@]2(C)C(=O)C=C[C@@H]12` (stereo partly shown) [Compound 10, Tenulin], in the experiment on COX-2 [5], the IC50, inhibiting the expression of COX-2 was found to be 5.5 µg/mL and the “inhibitory activity” value is “significantly less than that of compounds 1-9”. Further, the antitumor activity result in the experiment on tumor was “antitumor activity”.
